Laboratory results: patent publication US9976141B2, “Compositions and methods for inhibiting gene expression of Hif2alpha” (Arrowhead Madison Inc., priority 2015, dated 2018)
Where “and” joins values, the source holds several entries; their conditions need not be identical. Equal values may be shown once.

Columns and labels:
[1] = system: human (tumor) Hif2α (EPAS1) mRNA; assay: Hif2α knockdown in orthotopic RCC tumor bearing mice, single injection of RNAi trigger-delivery polymer conjugate, RT-qPCR (Table 7); assay type: in vivo; details: single tail vein injection, relative to isotonic glucose
Procedure, shortened: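 A single intravenous dose of Hif2α RNAi trigger–delivery polymer conjugate, or isotonic glucose vehicle, was given to nude mice with subcapsular A498-SEAP renal tumours (about 5–6 weeks old). At the indicated time, tumour RNA was assayed by biplex TaqMan qPCR against CycA, and relative expression was calculated by ΔΔCT versus vehicle.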

[2] = system: human (tumor) Hif2α (EPAS1) mRNA; assay: Hif2α expression in RCC tumor bearing mice after single injection of RGD targeted conjugates, 72 h, RT-qPCR (Table 11); assay type: in vivo
Description: Female athymic nude mice were anesthetized with ˜3% isoflourane and placed in the right lateral decubitus position. A small, 0.5-1 cm, longitudinally abdominal incision in the left flank was made. Using a moist cotton swab, the left kidney was lifted out of the peritoneum and gently stabilized. Just before injection, a 1.0 ml syringe was filled with the cell/Matrigel mixture and a 27 gauge needle catheter was attached to the syringe tip. The filled syringe was then attached to a syringe pump (Harvard Apparatus, model PHD2000) and primed to remove air. The tip of a 27-gauge needle catheter attached to a syringe was inserted just below the renal capsule near the caudal pole and the tip of the needle was then carefully advanced cranially along the capsule 3-4 mm. A 10 μl aliquot of 2:1 (vol:vol) cell/matrigel mixture containing about 300,000 cells was slowly injected into the kidney parenchyma using a syringe pump. The needle was left in the kidney for 15-20 seconds to ensure the injection was complete. The needle was then removed from the kidney and a cotton swab was placed over the injection site for 30 seconds to prevent leakage of the cells or bleeding. The kidney was then gently placed back into the abdomen and the abdominal wall was closed. Serum was collected every 7-14 days after implantation to monitor tumor growth using a commercial SEAP assay kit. For most studies, tumor mice were used 5-6 weeks after implantation, when tumor measurements were typically around 4-8 mm.
In preparation for quantitative PCR, total RNA was isolated from tissue samples homogenized in TriReagent (Molecular Research Center, Cincinnati, Ohio) following the manufacturer's protocol. Approximately 500 ng RNA was reverse-transcribed using the High Capacity cDNA Reverse Transcription Kit (Life Technologies). For human (tumor) Hif2α (EPAS1) expression, pre-manufactured TaqMan gene expression assays for human Hif2α (Catalog #4331182) and CycA (PPIA) Catalog #: 4326316E) were used in biplex reactions in triplicate using TaqMan Gene Expression Master Mix (Life Technologies) or VeriQuest Probe Master Mix (Affymetrix). For human (tumor) VegFa (VEGFA) expression, pre-manufactured TaqMan gene expression assays for human VegFa (Catalog #4331182, Assay ID: Hs00900055) and CycA (Part#: 4326316E) were used in biplex reactions in triplicate using TaqMan Gene Expression Master Mix (Life Technologies) or VeriQuest Probe Master Mix (Affymetrix). Quantitative PCR was performed by using a 7500 Fast or StepOnePlus Real-Time PCR system (Life Technologies). The ΔΔCT method was used to calculate relative gene expression.
RGD targeted HiF2α-RNAi trigger delivery polymer conjugates were formed using polymer 126, 100A, or 006. The RNAi trigger, μg indicates the quantity of trigger reacted with polymer. The polymer was modified with the indicated RGD mimic and PEG modifying agents as described above. Kidney RCC tumor-bearing mice were generated as described and treated with a single tail vein injection of isotonic glucose (G1) or the indicated Hif2α RNAi trigger-delivery polymer conjugate. Mice were euthanized 72 h (day 4) after injection and total RNA was prepared from kidney tumor using Trizol reagent following manufacturer's recommendation. Relative HiF2α mRNA levels were determined by RT-qPCR as described and compared to mice treated with delivery buffer (isotonic glucose) only (Table 11).

With “AD01214 (antisense TUUCAUGAAAUCGUUACGUTT; sense ACGUAACGAUUUCAUGAAAT; Hif2alpha RNAi agent antisense strand; modified_base 2,4,6,8,10,12,14,16,18 /mod_base = “2′-deoxy-2′-fluoro corresponding nucleoside”; modified_base 3,5,7,9,11,13,15,17,19 /mod_base = “2′-O-methyl corresponding nucleoside”; modified_base 21 /mod_base = “5′-phosphorothioate corresponding nucleotide”; Hif2alpha RNAi agent sense strand; modified_base 1,3,5,7,9,11,13,15,17,19 /mod_base = “2′-deoxy-2′-fluoro corresponding nucleoside”; modified_base 2,4,6,8,10,12,14,16,18 /mod_base = “2′-O-methyl corresponding nucleoside”; modified_base 20 /mod_base = “3′-3′-linked nucleotide”; modified_base 1 /mo)” as the substance, how does the “Relative Expression day 4 (Hif2α mRNA in kidney tumor)” value ([1]; RNAi trigger 80 μg, polymer 126 400 μg) read?
Its value is 0.29.

And the “Relative Expression day 4 (Hif2α mRNA in kidney tumor)” value ([1]; RNAi trigger 112.5 μg, polymer 006 300 μg)?
Its value is 0.36.

What about the “Relative Expression day 4 (Hif2α)” value ([2]; trigger 80 μg, polymer 126 280 μg, TFF, RGD-PEG8-HyNic 0.5×, PEG12-FCit-PABC-PNP) of the same substance?
The value was 0.489.

And the “Relative Expression day 4 (Hif2α)” value ([2]; trigger 80 μg, polymer 126 280 μg, RGD-PEG8-ACit-PABC-PNP 0.4×, PEG6-ACit-PABC-PNP)?
Its value is 0.360.

What about the “Relative Expression day 4 (Hif2α)” value ([2]; trigger 80 μg, polymer 126 280 μg, RGD-PEG8-ACitFP-NHS 1×, PEG6-ACit-PABC-PNP) of the same substance?
The value was 0.288.

And the “Relative Expression day 4 (Hif2α)” value ([2]; trigger 80 μg, polymer 126 280 μg, RGD-PEG8-HyNic 0.5×, PEG12-FCitFP-TFP)?
The value was 0.210.

What about the “Relative Expression day 4 (Hif2α)” value ([2]; trigger 112.5 μg, polymer 006 300 μg, RGD-PEG8-HyNic, PEG12-ACit-PABC-PNP) of the same substance?
Its value is 0.357.

And the “Relative Expression day 4 (Hif2α)” value ([2]; trigger 112.5 μg, polymer 100A 375 μg, TFF, RGD-PEG15-FCitFP-TFP 0.5×, no. 10.8, PEG12-ACit-PABC-PNP)?
The value was 0.193.

What about the “Relative Expression day 4 (Hif2α)” value ([2]; trigger 112.5 μg, polymer 100A 375 μg, TFF, RGD-PEG15-FCitFP-TFP 1×, no. 16.1, PEG12-ACit-PABC-PNP) of the same substance?
The value was 0.182.

And the “Relative Expression day 4 (Hif2α)” value ([2]; trigger 112.5 μg, polymer 100A 375 μg, TFF, RGD-PEG15-FCitFP-TFP 2×, no. 29.0, PEG12-ACit-PABC-PNP)?
The value was 0.182.

What about the “Relative Expression day 4 (Hif2α)” value ([2]; trigger 112.5 μg, polymer 100A 375 μg, TFF, RGD-PEG19-FCitFP-TFP 0.5×, no. 10.7, PEG12-ACit-PABC-PNP) of the same substance?
Its value is 0.163.

What about the “Relative Expression day 4 (Hif2α)” value ([2]; trigger 112.5 μg, polymer 100A 375 μg, TFF, RGD-PEG19-FCitFP-TFP 1×, no. 18.5, PEG12-ACit-PABC-PNP) of the same substance?
Its value is 0.114.

What about the “Relative Expression day 4 (Hif2α)” value ([2]; trigger 112.5 μg, polymer 100A 375 μg, TFF, RGD-PEG19-FCitFP-TFP 2×, no. 31.1, PEG12-ACit-PABC-PNP) of the same substance?
The value was 0.182.

What about the “Relative Expression day 4 (Hif2α)” value ([2]; trigger 112.5 μg, polymer 100A 375 μg, TFF, RGD-PEG20-FCitFP-TFP 0.125×, no. 1.9, PEG12-ACit-PABC-PNP) of the same substance?
Its value is 0.169.

What about the “Relative Expression day 4 (Hif2α)” value ([2]; trigger 112.5 μg, polymer 100A 375 μg, TFF, RGD-PEG20-FCitFP-TFP 0.25×, no. 3.4, PEG12-ACit-PABC-PNP) of the same substance?
The value was 0.168.

And the “Relative Expression day 4 (Hif2α)” value ([2]; trigger 112.5 μg, polymer 100A 375 μg, TFF, RGD-PEG20-FCitFP-TFP 0.5×, no. 6.6, PEG12-ACit-PABC-PNP)?
The value was 0.130.

What about the “Relative Expression day 4 (Hif2α)” value ([2]; trigger 112.5 μg, polymer 100A 375 μg, TFF, RGD-PEG20-FCitFP-TFP 1×, no. 12.7, PEG12-ACit-PABC-PNP) of the same substance?
Its value is 0.121.

And the “Relative Expression day 4 (Hif2α)” value ([2]; trigger 112.5 μg, polymer 100A 375 μg, TFF, RGD-PEG20-FCitFP-TFP 1.5×, no. 20.3, PEG12-ACit-PABC-PNP)?
The value was 0.135.

And the “Relative Expression day 4 (Hif2α)” value ([2]; trigger 112.5 μg, polymer 100A 375 μg, RGD-PEG19-FCitFP-TFP 1×, PEG12-ACit-PABC-PNP)?
Its value is 0.195.

And the “Relative Expression day 4 (Hif2α)” value ([2]; trigger 112.5 μg, polymer 100A 375 μg, RGD-PEG19-FCitFP-TFP 1×, PEG12-FCitFP-TFP)?
The value was 0.148 and 0.188.

And the “Relative Expression day 4 (Hif2α)” value ([2]; trigger 115 μg, polymer 100A 375 μg, RGD-PEG8-HyNic 0.5×, PEG12-FCitFP-TFP)?
Its value is 0.258.
